The results in this text go back to paper PMC8962293, “Synthesis, Structure, and Antiproliferative Action of 2-Pyridyl Urea-Based Cu(II) Complexes” (Biomedicines, 2022).

A word on the IC50: it is the concentration needed to halve the response being measured.

Series [1] relates to A549 human lung carcinoma cells. Put plainly: MTT assay on A549 cells. Type of series: cell-based. The settings on record: A549, 72 h. The protocol: (§1) A549, NCI-H460, NCI-H1975 lung cancer cells and WI-26 VA4 lung epithelial-like cells were purchased from the ATCC. A549 cells were maintained in F12-K (Corning, NY, USA) supplemented with 10% fetal bovine serum (Fetal Bovine Serum, qualified, Australia; Gibco, Loughborough, UK), penicillin (100 UI mL^−1), streptomycin (100 µg mL^−1), and GlutaMax (1.9 mM, Gibco, UK). NCI-H460 and NCI-H1975 cells were maintained in RPMI-1640 (ATCC modification) media (Gibco, Loughborough, UK) supplemented with 10% fetal bovine serum (Fetal Bovine Serum, qualified, Australia; Gibco, Loughborough, UK), penicillin (100 UI mL^−1), streptomycin (100 µg mL^−1), and GlutaMax (2 mM, Gibco, UK). WI-26 VA4 cells were maintained in Advanced MEM (Gibco, Loughborough, UK) supplemented with 5% fetal bovine serum (Fetal Bovine Serum, qualified, Australia, Gibco, UK), penicillin (100 UI mL^−1), streptomycin (100 µg mL^−1), and GlutaMax (1.87 mM, Gibco, Loughborough, UK). All cells line cultivation under a humidified atmosphere of 95% air/5% CO2 at 37 °C. Subconfluent monolayers, in the log growth phase, were harvested by a brief treatment with TrypLE Express solution (Gibco, Loughborough, UK) in phosphate buffered saline (PBS, Capricorn Scientific, Germany) and washed three times in serum-free PBS. The number of viable cells was determined by trypan blue exclusion.
(§2) The effects of the synthesized compounds on cell viability were determined using the MTT colorimetric test. All examined cells were diluted with the growth medium to 3.5 × 10^4 cells per mL and the aliquots (7 × 10^3 cells per 200 μL) were placed in individual wells in 96-well plates (Eppendorf, Hamburg, Germany) and incubated for 24 h. The next day, the cells were treated with synthesized compounds separately in concentration 10 and 100 μM (or 200.0 μM concentration and diluted at various concentrations for determination of IC50) and incubated for 72 h at 37 °C in 5% CO2 atmosphere. Each compound was tested in triplicate. After incubation, the cells were treated with 40 μL MTT solution (3-(4,5-dimethylthiazol-2-yl)-2,5-diphenyltetrazolium bromide, 5 mg mL^−1 in PBS) and incubated for 4 h. After additional 4-h incubation, the medium with MTT was removed and DMSO (150 μL) was added to dissolve the formazan crystals. The plates were shaken for 10 min. The optical density of each well was determined at 560 nm using GloMax Multi+ (Promega, Madison, WI, USA) microplate reader. Each of the tested compounds was evaluated for cytotoxicity in three separate experiments. All stock solutions for biological evaluations were prepared via dissolving synthesized compounds in DMSO.
(In general: Tetrazolium dyes change colour on reduction, which living cells bring about.)

Series [2] deals with NCI-H460 non-small cell lung carcinoma cells. Nature of the series: MTT assay on NCI-H460 cells. The class given is cell-based, human. The settings on record: NCI-H460, 72 h. The method, then: as §1, §2
The subject of series [3] is EGFR-mutant NCI-H1975 non-small cell lung carcinoma cells. Put plainly: MTT assay on NCI-H1975 cells. The class given is cell-based, human. The protocol:
as §1, §2

For series [4], the system named is non-cancerous lung fibroblast WI-26 VA4. Nature of the series: MTT assay on WI-26 VA4 cells (non-specific cytotoxicity). Conditions: WI-26 VA4, 72 h. Type of series: cell-based, human. The method, then: as §1, §2
The test system of series [5] is NCI-H1975 cells. Nature of the series: Cell cycle analysis by flow cytometry. Type of series: cell-based, human. Conditions: NCI-H1975, 10, 20, and 35 μM, 48 h. The protocol: For the cell cycle analysis, the cells (1 × 10^6 per well) were placed at 6-well culture plates (Eppendorf, Germany) and allowed to grow overnight. After the medium was replaced with solution tested compounds (10, 20, or 35 μM). The exposed cells were placed at 37 °C in a 5% CO2 incubator for 48 h. After the completion of incubations, cells were harvested by trypsinization, washed with PBS, centrifuged, fixed with 70% ethanol and incubated for 7 h at –20 °C. An aliquot of the pellet (200 µL) was washed with PBS, stained with 200 µL of the Guava Cell Cycle Reagent (Merck, Kenilworth, NJ, USA), and incubated for 30 min at room temperature in the dark. The cell cycle distribution was analyzed by flow cytometry on a CytoFlex (Beckham Coulter, Brea, CA, USA) and CytExpert 2.1 program.
For orientation: A flow cytometer gives signals particle by particle.

Series [6] concerns NCI-H1975 cells. Nature of the series: Annexin V-FITC/PI double staining apoptosis assay. The class given is cell-based, human. Conditions: NCI-H1975, 50 μM, 48-h incubation. The protocol: For the detection of apoptosis, the cells were placed at 6-well culture plates (Eppendorf, Germany) and allowed to grow overnight. After the cells reached subconfluency, the medium was replaced with tested compounds (25 or 50 μM). The exposed cells were placed at 37 °C in a 5% CO2 incubator for 24 or 48 h. The cultured cells were washed twice with PBS and resuspended in 1× binding buffer (AnnexinV-FITC kit, Invitrogen, Waltham, MA, USA) at a concentration 1 × 10^6 mL^−1. Annexin FITC (5 μL) and propidium iodide (PI, 2 μL) were added to 100 μL of the cell suspension and incubated for 15 min at room temperature (25 °C) in the dark. After incubation, 400 μL of 1× binding buffer was added to each tube and the stained cells were analyzed within 1 h using CytoFlex (Beckman Coulter, Brea, CA, USA) and CytExpert 2.1 program. Since the AnnexinV-FITC staining precedes the loss of membrane integrity that accompanies the later stage identified by PI, Annexin FITC positive, PI negative indicates early apoptosis, while the viable cells are Annexin V FITC negative, PI negative. The cells that are in late apoptosis or dead are both Annexin V FITC and PI positive.

The nature of series [7]: Molar conductivity in DMSO solution. The settings on record: DMSO solutions, 25 °C. Type of series: physicochemical. The method, then: The preparation and characterization of starting pyridine-N-oxides as well as U1–12 are described previously. CuCl2, other reactants, and solvents were obtained from commercial sources. High-resolution mass-spectra (HRMS) were measured on Bruker Maxis HRMS-ESI-qTOF (Electrospray Ionization, ESI; Bruker, Billerica, MA, USA); a MeOH was used as the solvent. The instrument was operated at positive ion mode using m/z range of 50–3000. The capillary voltage of the ion source was set at –4500 V (ESI^+) and the capillary exit at +(70–150) V. The nebulizer gas pressure was 0.4 bar and drying gas flow was 4.0 L/min. The most intensive peak in the isotopic pattern is reported. Infrared spectra (4000–400 cm^–1) were recorded on a Shimadzu FTIR 8400S (Shimadzu, Kyoto, Japan) instrument in KBr pellets. The C, H, and N elemental analyses were carried out on a Leco TruSpec Micro CHNS analyzer (LECO, St. Joseph, MI, USA). TGA was performed on a ca. 2 mg samples of Cu(II) complexes by using a Netzsch TG 209 F1 Libra thermal analyzer (Netzsch, Selb, Germany). The samples were dried under a vacuum at 50 °C before heating from 40 to 450 °C at a heating rate of 10 K min^–1. A flow rate of 10 mL min^–1 of dry argon was used to purge the samples. Molar conductivity was measured with an Elico digital conductivity bridge model CM-88, using a freshly prepared DMSO solution of the complexes.

In the case of `CN(C)C(=O)Nc1cc([N+](=O)[O-])ccn1.CN(C)C(=O)Nc1cc([N+](=O)[O-])ccn1.[Cl-].[Cl-].[Cu+2]` [[Cu(U3)2Cl2]], the concentration for half-maximal inhibition (IC50) in series [1] came to 61.4 ± 6.52 µM; in series [2] it was 77.5 ± 6.4 µM; in series [3] (NCI-H1975, 72 h, MTT) it was 39.6 ± 4.5 µM; in series [4], 81.6 ± 10.1 µM. Besides, the “selectivity over the healthy human cells WI-26 VA4” value in series [3] (NCI-H1975 vs WI-26 VA4) was “the most selective”. The “cells trapped in the G2 phase” value in the series on NCI-H1975 cells [5] is recorded as “profound increase”. For the same compound, in the series with NCI-H1975 cells [5], the “number of cells in the G1 phase” value is recorded as “remarkable drop”. Moreover, the “percentage of dead cells” value in the series on NCI-H1975 cells [6] (control 0.28%) is given as 2.87%. Besides, the “percent of Annexin V FITC-positive early apoptotic cells” value with NCI-H1975 cells [6] (control 5.25%) is 16.30%. Besides, the “late apoptotic fraction in cell population” value with NCI-H1975 cells [6] (control 12.02%) came to 22.38%. Further, in series [7], the Molar conductivity was 24.1 Ω^−1·cm^2·mol^−1.
